Measurements taken from patent publication US20260048076A1, “METHODS FOR DECREASING OR INHIBITING HUMAN L1 RETROTRANSPOSON RNA AND COMPOSITIONS FOR USE THEREIN” (ALTOS LABS, INC., priority 2022, published 2026).
[FANA] = 2'-fluoro-arabino; d = 2'-deoxy (DNA)

Key:
Format in all cases: cell-based, human
HGPS hMSCs = test: Comparison of 3TC and L1 translation blocker with L1 RNA depletion in HGPS hMSCs (senescence gene qPCR, immuno-FISH, SA-β-gal); details: 3TC 10 mM, translation inhibitor ASOs 20 nM
Description: (§1) Tail tip fibroblasts (TTFs) were isolated from WT and LAKI mice and cultured at 37° C. in Dulbecco's Modified Eagle Medium (DMEM) (Invitrogen) containing Gluta-MAX, non-essential amino acids, and 10% fetal bovine serum (FBS, Gibco). WT and HGPS human dermal fibroblast were obtained from Coriell Biobank (WT: AG06234, AG10108, AG09309, AG10803, AG03257. HGPS: AG06917, AG11498, AG10578, AG11572, AG06297. APS: AG041100 (LMNA E578V), AG00989 (LMNA R644C), AG00990 (LMNA T10I), AG09233 (unknown mutation). WRN: AG12798; AG24467; AG06300; AG00780; AG05229). For LINE-1 knockdown, cells were incubated with 1 μM FANA ASO dissolved in culture medium (61) every 4 days and collected after two passages for senescent marker expression or immunohistochemistry. 3TC (Sigma-Aldrich) treatments were performed at 10 mM as in De Cecco et al. (11). Translation inhibitor ASOs (miRCURY LNA, Qiagen) were used at a final concentration of 20 nM and transfected with RNAiMAX (Invitrogen, Thermo Fisher Scientific) following manufacturer instructions. […]
(§2) Cells were fixed with 4% formaldehyde in PBS at room temperature (RT) for 10 min. […] Z-stack 3D reconstruction, nuclei segmentation, and fluorescence signal quantification were performed using Imaris (v.8.4.1) using nuclei volume as a reference to normalize fluorescence signals. […]

WRN hMSCs = test: Comparison of 3TC and L1 translation blocker with L1 RNA depletion in WRN hMSCs (senescence gene qPCR, immuno-FISH, SA-β-gal); details: 3TC 10 mM, translation inhibitor ASOs 20 nM
Description: as §1, §2

HGPS fibroblasts = test: Quantitative mass spectrometry proteome analysis in HGPS fibroblasts
Description: (§3) Total protein extracts were prepared with RIPA buffer (50mMTris-cl pH 8.0, 5 mM EDTA, 150 mM Nacl, 15 mM Mgcl2, 1% NP-40, 1 mM PMSF and 1× Protease Inhibitor Cocktail (PIC)). Further, a sonication step was included: (30S ON, 30S OFF, 10 cycles with Bioruptor). Equal […] protein extracts were concentrated to […] volume, then diluted in 8M urea in 0.1M Tris-HCl, followed by protein digestion with trypsin, according to the FASP protocol(66). After an overnight digestion, the peptides were eluted from the filters with 25 mM ammonium bicarbonate buffer. The eluted peptides were processed in the desalting step by using Sep-Pag C18 Column (waters) based on the manufacture's instruction. Approximately 200 ng of peptide mixture per sample was analyzed using a timsTOF Pro 2 QTOF mass spectrometer coupled with a nanoElute liquid chromatography system (Bruker Daltonik GmbH, Germany). The sample was injected directly into a RP-C18 Aurora emitter column (75 μm i.d.×250 mm, 1.6 μm, 120 Å pore size) (Ion Opticks, Australia) using a one-column separation method. An 80-min gradient was established using mobile phase A (0.1% FA in H2O) and mobile phase B (0.1% FA in Acetonitrile): 2-25% B for 60 min, 25-37% for 10 min, ramping 37% to 95% in 5 min, and maintaining 95% B for 5 min. The column temperature was set at 50° C. and the flow rate at 250 nl/min. […]

WRN fibroblasts = test: Quantitative mass spectrometry proteome analysis in WRN fibroblasts
Description: as §3

Compound	anti-aging effect (senescence-associated gene expression, H3K9me3, SA-β-gal positive cells) (HGPS hMSCs)	anti-aging effect (senescence-associated gene expression, H3K9me3, SA-β-gal positive cells) (WRN hMSCs)	protein differential expression (quantitative mass spectrometry) (HGPS fibroblasts)	protein differential expression (quantitative mass spectrometry) (WRN fibroblasts)
Nc1ccn([C@@H]2CS[C@H](CO)O2)c(=O)n1 [3TC]	no effect	less potent anti-aging effect compared to L1 RNA depletion		
A*C*T* T*C*C CTT CTC GCT TC*A*T*T*T* (ACTTCCCTTCTCGCTTCATTT; sugars from the 5' end [FANA]5 d11 [FANA]5, backbone and methylation of C not given here; listed as Homo sapiens) [human L1 2′F-ANA ASO #1, L1-specific 2′F-ANA modified ASO used in all human cell experiments; * denotes 2′F-ANA modified nucleotides]			ameliorated the aged phenotype also at proteome global level	ameliorated the aged phenotype also at proteome global level
